Data on four compounds can be found in patent US20080249105A1, “Pyrrolopyridine-Substituted Benzol Derivatives for Treating Cardiovascular Diseases” (Bayer Healthcare AG, priority 2003, published 2008).

T1 sequence (Q62868 whole entry): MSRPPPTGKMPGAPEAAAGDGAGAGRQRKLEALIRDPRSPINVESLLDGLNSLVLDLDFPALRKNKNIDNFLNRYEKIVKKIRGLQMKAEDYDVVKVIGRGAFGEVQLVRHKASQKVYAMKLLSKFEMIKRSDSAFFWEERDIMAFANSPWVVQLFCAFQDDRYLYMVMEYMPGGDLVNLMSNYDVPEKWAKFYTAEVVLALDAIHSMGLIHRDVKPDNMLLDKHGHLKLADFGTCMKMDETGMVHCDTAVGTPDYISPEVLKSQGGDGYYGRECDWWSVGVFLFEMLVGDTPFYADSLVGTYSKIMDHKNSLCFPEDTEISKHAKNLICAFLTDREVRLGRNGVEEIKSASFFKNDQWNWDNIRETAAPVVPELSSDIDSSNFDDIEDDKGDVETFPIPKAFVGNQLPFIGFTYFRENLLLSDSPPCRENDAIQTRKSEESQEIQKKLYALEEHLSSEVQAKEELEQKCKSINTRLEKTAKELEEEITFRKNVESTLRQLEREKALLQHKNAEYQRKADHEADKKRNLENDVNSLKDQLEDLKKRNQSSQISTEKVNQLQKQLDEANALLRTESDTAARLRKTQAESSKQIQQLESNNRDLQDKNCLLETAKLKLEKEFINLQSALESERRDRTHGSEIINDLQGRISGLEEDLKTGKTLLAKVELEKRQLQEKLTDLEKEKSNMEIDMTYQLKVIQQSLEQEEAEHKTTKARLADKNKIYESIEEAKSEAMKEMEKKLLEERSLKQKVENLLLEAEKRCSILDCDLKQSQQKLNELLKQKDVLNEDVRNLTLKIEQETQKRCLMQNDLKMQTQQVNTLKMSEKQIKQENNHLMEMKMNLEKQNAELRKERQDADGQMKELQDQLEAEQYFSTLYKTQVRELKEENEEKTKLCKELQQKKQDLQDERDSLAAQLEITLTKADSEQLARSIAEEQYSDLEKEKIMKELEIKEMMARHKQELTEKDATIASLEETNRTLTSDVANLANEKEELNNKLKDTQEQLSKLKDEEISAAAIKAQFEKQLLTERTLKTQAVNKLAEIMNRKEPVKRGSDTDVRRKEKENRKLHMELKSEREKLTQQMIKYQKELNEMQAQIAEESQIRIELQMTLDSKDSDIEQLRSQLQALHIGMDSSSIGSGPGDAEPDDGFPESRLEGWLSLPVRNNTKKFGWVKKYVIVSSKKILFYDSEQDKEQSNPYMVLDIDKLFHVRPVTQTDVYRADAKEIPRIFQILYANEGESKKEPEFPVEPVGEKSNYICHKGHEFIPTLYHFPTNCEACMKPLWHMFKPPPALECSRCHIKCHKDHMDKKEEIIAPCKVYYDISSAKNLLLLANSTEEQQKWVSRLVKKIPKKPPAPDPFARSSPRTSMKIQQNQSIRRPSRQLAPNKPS

The assay has as its target T1, Rho kinase II (ROKα) (Rattus norvegicus, UniProt Q62868).
T1 construct: purchased Upstate Biotechnology
In words: Inhibition of recombinant Rho kinase II (ROKα), 33P phosphate uptake into S6 substrate peptide. In kind it is biochemical. The conditions noted are these: recombinant Rho kinase II (Upstate Biotechnology), S6 phosphate-acceptor peptide, 33P-labelled ATP, 20 min at 37° C. On the procedure: The inhibition of the enzyme is investigated in an in vitro assay with recombinant Rho kinase II. The vessel-relaxing action is determined using phenylephrin-induced contractions of isolated rings of the saphenous artery of rabbits.
Inhibition of Recombinant Rho Kinase II (ROKα)
The activity of Rho kinase is determined by the uptake of ^33P phosphate into a substrate peptide. To this end, commercially available Rho kinase II (Upstate Biotechnology) is pre-incubated at 37° C. in the presence of the S6 phosphate-acceptor peptide with the test substances or a solvent control for 10 min. The kinase reaction is then started by addition of ^33P-labelled ATP. After 20 min at 37° C., the reaction is stopped by addition of H3PO4. Aliquots are pipetted onto filters and the filters are washed and then covered with scintillator. The radioactivity of the ^33P-labelled peptides bound to the filter is measured in a Micro-Beta counter. The IC50 value corresponds to the concentration of a test substance at which the Rho-kinase-catalysed uptake of ^33P into the peptide is inhibited by 50%, compared to a solvent control.
By IC50 is commonly meant the concentration that inhibits the measured activity by half. `CN(C)CCNC(=O)Nc1ccc(Oc2ccnc3[nH]ccc23)c(F)c1` [Example 40]: the IC50 turned out to be 27 nM.

For `CC(C)(C)NCc1ccc(C(=O)Nc2ccc(Oc3ccnc4[nH]ccc34)c(F)c2)cc1` [Example 15], the IC50 was 49 nM.

On to `CN(C)CCOC(=O)Nc1ccc(Oc2ccnc3[nH]ccc23)c(F)c1` [Example 41], for which the IC50 is 20 nM.

With `Cc1c[nH]c2nccc(Oc3ccc(NC(=O)CNC(C)(C)C)cc3F)c12` [Example 23], the IC50 was 12 nM.
